Experimental data taken from paper PMC11079064, “Discovery of a brain penetrant small molecule antagonist targeting LPA1 receptors to reduce neuroinflammation and promote remyelination in multiple sclerosis” (Scientific Reports, 2024).

Experiments:
[1] = test system: CC1+/OLIG2+ oligodendrocytes; assay: In vivo CC1 induction assay; parameters: species or system mouse; details: single 3 mg/kg dose, brains collected 5 days later
Description: Sections were immunostained for the mature oligodendrocyte marker, CC1, and the oligodendroglial marker, OLIG2 to represent the total OPC/oligodendrocyte population.
Female C57Bl/6 mice (9–11 weeks old) were used in this experiment, n = 5/group. […] On day 5, mice were sacrificed and brains submerged in formalin. Tissue was sectioned at 40 µm on a sliding microtome (ThermoFisher, Microm HM450, Waltham, MA). Four sections per mouse were immunostained. Sections were permeabilized and blocked by incubation with 20% goat serum (Millipore Sigma, St. Louis, MO) and 0.2% Triton X-100 (Millipore Sigma, St. Louis, MO) in PBS. Oligodendrocytes were detected with a rat monoclonal antibody to Anti-APC (1:500, Calbiochem, San Diego, CA), and the total pool OPC/oligodendrocyte pool were detected with a rabbit monoclonal antibody to Olig-2 (1:500, Invitrogen, Carlsbad, CA). Alexa Fluor 594 and 647 IgG secondary antibodies against rat and rabbit (1:1000, Invitrogen, Carlsbad, CA) were used for primary antibody detection. Cell nuclei were identified with Hoechst (1:1000, Invitrogen, Carlsbad, CA). […] Detection and quantification of the cells were performed using NIS Elements imaging software (Nikon, Minato, Tokyo).
Supplemental Figure 5. […] Sections were immunostained using antibodies against CC1 (mature oligodendrocytes), Olig2 (oligodendroglial marker), and counterstained with Hoechst. […]

microglia = assay: Microglial myelin debris phagocytosis assay; assay type: cell-based, rat; details: any concentration, activated microglia, 90 min myelin debris
Protocol: Fluoromyelin-labeled myelin debris was added for 90 min and then the cultures were fixed. IBA1^+/fluoromyelin^+ cells were quantified and normalized to total IBA1^+ cells.
For phagocytosis, microglia were harvested from cortical cultures generated from P2 rats. Cortices were isolated, meninges removed, minced and digested in 0.05% trypsin (Invitrogen, Carlsbad, CA, Carlsbad, CA) for 15 min at 37 °C. Tissue was allowed to settle, trypsin removed and HBSS (Corning, Glendale, AZ) with 20% FBS (20% HBSS) was added to halt further digestion. Tissue was washed again in 20% HBSS and resuspended in DMEM with 10% FBS and penicillin/streptomycin (10% DMEM). Cells were plated in a T150 flask and cultured for 10 days with media changes every other day. Microglia were mechanically isolated by tapping flask against the hood surface. Microglia were transferred to a conical and centrifuged at 800 × g for 15 min and resuspended in 10% DMEM, plated in 96 wells at a density of 5000/well and cultured for 3 days. […] Fluoromyelin labeled myelin debris was added to each well and incubated for 90 min. Microglia were then fixed and immunostained for IBA1 (Invitrogen, Carlsbad, CA, Carlsbad, CA). […]
Supplemental Figure 7. […] Total IBA1^+ and IBA1^+/fluoromyelin^+ cells were counted. […]

MOG-EAE mouse model = assay: MOG-EAE mouse model, g-ratios by electron microscopy; assay type: in vivo
Protocol: In control, non-EAE mice, 90.9% of the axons were myelinated (g-ratio < 1). In vehicle treated MOG-EAE mice, only 73.4% of axons were myelinated.
Remyelinated axons canonically have thin myelin[41]. As such, we examined axons with g-ratios ≥ 0.8 but less than 1 as a surrogate measure of a remyelinating axon.
To confirm this, g-ratios in the optic nerve were similarly quantified. […] In non-MOG-EAE mice, 86.4% of the axons were myelinated. […] At 0.3 mg/kg, 85.5% were myelinated. When thinly myelinated axons were quantified, 30.2% in the MOG-treated vehicle group were observed, compared to 50.7% in the non-MOG control.
Study termination was the last day that clinical scores were determined for all study animals (Day 24). Since VEP recordings required several days (Days 21–24), oral dosing continued through perfusion, which was performed on Day 24 or Day 25. On Day 24 or 25, and following completion of VEP recordings, mice were deeply anesthetized with isoflurane anesthesia and whole body perfused with EM grade Karnovsky’s fixative (3% glutaraldehyde, 2% paraformaldehyde in 0.1 M phosphate buffer, pH 7.4; part # 15732-10; Electron Microscopy Sciences, Hatfield, PA). Spinal columns and optic nerves were collected and stored in fixative at 4 °C until further processing. After at 3–5 days in fixative, spinal cords were isolated and dissected from the vertebrae. Approximately 2 mm of the most caudal lumbar region was trimmed and segmented and, along with the optic nerves, shipped to Charles River Laboratories (Durham, NC) for processing for and imaging by electron microscopy.
The blocks were polymerized overnight at ~ 85 °C, and semi-thin sections (~ 1 μm, one per tissue) prepared and stained with toluidine blue using standard protocols. Semi-thin images were evaluated, and the most caudal region was identified as the region of focus for thin sections. Thin sections of ~ 100 nm were prepared using standard protocols and the grids were imaged at 1500 × on a JEOL JEM-1400 + transmission electron microscope fitted with an AMT 16 MP digital camera system. The direct magnification used was 1500 × or 4000 × for spinal cord and optic nerve, respectively.
Digital EM images were analyzed using ImageJ (NIH, Bethesda, MD) measure the circumference of the axon and, when present, the myelin sheath, and g-ratios were calculated. For spinal cord analysis, 4 representative images were analyzed per animal and the results pooled, and the percentages calculated from the animal total. For optic nerve analysis, 1 representative image was analyzed per optic nerve and each optic nerve was treated as a separate data point.

`COc1ccc(NC(=O)N(c2ccccc2C(C)C)C2CCC(C(=O)O)CC2)c(OC(F)F)n1` (stereo not drawn) [PIPE-791] was tested, and the “increase in CC1+/OLIG2+ oligodendrocytes” value [1] was 163%, the “effect on myelin phagocytosis compared to vehicle” value (microglia) was “No significant decrease” and the “myelinated axons, optic nerve” value (MOG-EAE mouse model; 0.3 mg/kg) was 85.5%. The “thinly myelinated axons, optic nerve” value (MOG-EAE mouse model; 0.3 mg/kg) was 44.7%, the “myelinated axons, optic nerve” value (MOG-EAE mouse model; 3 mg/kg) was 86.1% and the “thinly myelinated axons, optic nerve” value (MOG-EAE mouse model; 3 mg/kg) was 50.6%.
